Bridge positions count the residues as written; N and C are the ends. Square brackets hold non-standard residues; d marks the D form. Peptide text beside a SMILES is read from it. * marks the point of attachment. ξ: configuration not given here. Phe(4-CONH2) = NC(=O)c1ccc(C[C@H](N)C(=O)O)cc1; Phe(4-COOH) = N[C@@H](Cc1ccc(C(=O)O)cc1)C(=O)O; Bip = N[C@@H](Cc1ccc(-c2ccccc2)cc1)C(=O)O; Phe(3-OMe) = COc1cccc(C[C@H](N)C(=O)O)c1; Phe(3-Me) = Cc1cccc(C[C@H](N)C(=O)O)c1; Val(3-OH) = CC(C)(O)[C@H](N)C(=O)O; 3Pal = N[C@@H](Cc1cccnc1)C(=O)O; 4Pal = N[C@@H](Cc1ccncc1)C(=O)O; Cha = N[C@@H](CC1CCCCC1)C(=O)O; Cit = NC(=O)NCCC[C@H](N)C(=O)O; Ile(3ξ) = CCC(C)[C@H](N)C(=O)O; Thr(3ξ) = CC(O)[C@H](N)C(=O)O; Carboxymethyl = O=C(O)C*; NMeA = CN[C@@H](C)C(=O)O; Orn = NCCC[C@H](N)C(=O)O; Dab = NCC[C@H](N)C(=O)O; Dap = NC[C@H](N)C(=O)O

The assay deals with T1, PE-labeled human PD-L1-Ig binding to Jurkat cell line over-expressing human PD-1 (Jurkat-PD-1) (Homo sapiens, UniProt Q15116).
T1 construct: expressed in transfected cells; host or cells: Jurkat
T1 sequence (Q15116 25-288): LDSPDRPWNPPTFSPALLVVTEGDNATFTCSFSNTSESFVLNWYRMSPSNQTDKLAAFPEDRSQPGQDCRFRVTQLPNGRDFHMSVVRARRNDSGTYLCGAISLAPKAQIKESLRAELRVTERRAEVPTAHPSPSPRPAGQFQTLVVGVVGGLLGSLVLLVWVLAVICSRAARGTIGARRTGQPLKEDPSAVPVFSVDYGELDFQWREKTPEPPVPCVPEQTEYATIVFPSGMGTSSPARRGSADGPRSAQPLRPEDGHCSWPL
Description: Jurkat-PD-1 Cell Binding High-Content Screening Assay (CBA): Method 1. The note with it: Jurkat-hPD-1 cells, PE-labeled PD-L1-Ig 20 nM final; read-out: Jurkat HPDL1 PD1 IC50 (uM) (Method 1).
As a reminder, the IC50 is the concentration at which inhibition is half-maximal. For `CC(C)C[C@@H]1NC(=O)[C@H](CCCN)NC(=O)[C@@H](CC(C)C)NC(=O)[C@H](C)N(C)C(=O)[C@H](CCCNC(=N)N)NC(=O)[C@H](Cc2ccc(-c3ccccc3)cc2)NC(=O)[C@H](C(C)C)NC(=O)[C@H](Cc2c[nH]c3ccccc23)NC(=O)[C@H](CC(=O)O)NC(=O)[C@H](Cc2ccc(O)cc2)NC(=O)[C@H](Cc2cnc[nH]2)NC(=O)CSC[C@@H](C(=O)N[C@@H](C)C(N)=O)NC(=O)[C@H]([C@@H](C)O)NC(=O)[C@H](C(C)C)NC1=O` [Compound 1144] ({CH2CO}-HYDWV[Bip]R[NMeA][dL][Orn]LVTCA-NH2; thioether N-14), the IC50 was determined as 0.05 µM.
For the compound `Cc1cccc(C[C@@H]2NC(=O)[C@H](CC(=O)O)NC(=O)[C@H](Cc3ccc(OCC(=O)O)cc3)NC(=O)[C@H](Cc3ccncc3)NC(=O)CSC[C@@H](C(=O)N[C@@H](CO)C(N)=O)NC(=O)[C@H](CO)NC(=O)[C@H](C(C)(C)O)NC(=O)[C@H](CC3CCCCC3)NC(=O)[C@H](CCN)NC(=O)[C@@H](CC(C)C)NC(=O)[C@H](C)N(C)C(=O)[C@H](Cc3ccc(C(=O)O)cc3)NC(=O)[C@H](Cc3ccc(-c4ccccc4)cc3)NC(=O)[C@H](Cc3ccc(C(N)=O)cc3)NC2=O)c1` [Compound 2180] ({CH2CO}-[4Pal]Y(Carboxymethyl)D[Phe(3-Me)][Phe(4-CONH2)][Bip][Phe(4-COOH)][NMeA][dL][Dab][Cha][Val(3-OH)]SCS-NH2; thioether N-14), the IC50 was found to be 0.02 µM.
As for `CC(C)C[C@@H]1NC(=O)[C@H](CCCNC(=N)N)NC(=O)[C@@H](Cc2ccccc2)NC(=O)[C@H](C)N(C)C(=O)[C@H](CCCNC(=N)N)NC(=O)[C@H](Cc2ccc(-c3ccccc3)cc2)NC(=O)[C@H](C(C)C)NC(=O)[C@H](Cc2c[nH]c3ccccc23)NC(=O)[C@H](CC(=O)O)NC(=O)[C@H](Cc2ccc(O)cc2)NC(=O)[C@H](Cc2cccnc2)NC(=O)CSC[C@@H](C(=O)N[C@@H](C)C(N)=O)NC(=O)[C@H]([C@@H](C)O)NC(=O)[C@H](C(C)C)NC1=O` [Compound 1161] ({CH2CO}-[3Pal]YDWV[Bip]R[NMeA][dF]RLVTCA-NH2; thioether N-14), the IC50 was found to be 0.11 µM.
On to `CC(C)C[C@@H]1NC(=O)[C@H](CCN)NC(=O)[C@@H](CC(C)C)NC(=O)[C@H](C)N(C)C(=O)[C@H](C(C)C)NC(=O)[C@H](Cc2ccc(-c3ccccc3)cc2)NC(=O)[C@H](C(C)C)NC(=O)[C@H](Cc2c[nH]c3ccccc23)NC(=O)[C@H](CC(=O)O)NC(=O)[C@H](Cc2ccc(OCC(=O)O)cc2)NC(=O)[C@H](CC(N)=O)NC(=O)CSC[C@@H](C(=O)N[C@@H](C)C(N)=O)NC(=O)[C@H]([C@@H](C)O)NC(=O)[C@H](C(C)C)NC1=O` [Compound 1377] ({CH2CO}-NY(Carboxymethyl)DWV[Bip]V[NMeA][dL][Dab]LVTCA-NH2; thioether N-14), for which the IC50 worked out at 0.02 µM.
`CCC(C)[C@@H]1NC(=O)[C@H](Cc2ccc(-c3ccccc3)cc2)NC(=O)[C@H](C(C)C)NC(=O)[C@H](Cc2c[nH]c3ccccc23)NC(=O)[C@H](CC(=O)O)NC(=O)[C@H](Cc2ccc(C(=O)O)cc2)NC(=O)[C@H](Cc2ccc(OCC(=O)O)cc2)NC(=O)CSC[C@@H](C(=O)NCC(=O)N[C@@H](CN)C(=O)O)NC(=O)[C@H](C(C)O)NC(=O)[C@H](C(C)C)NC(=O)[C@H](CC2CCCCC2)NC(=O)[C@H](CC(N)=O)NC(=O)[C@@H](CC(C)C)NC(=O)[C@H](C)N(C)C1=O` (stereo partly drawn) [Compound 2005] ({CH2CO}-Y(Carboxymethyl)[Phe(4-COOH)]DWV[Bip][Ile(3ξ)][NMeA][dL]N[Cha]V[Thr(3ξ)]CG[Dap]-OH; thioether N-14): the IC50 is 0.02 µM.
Take `CC(C)C[C@@H]1NC(=O)[C@H](CCN)NC(=O)[C@@H](CC(C)C)NC(=O)[C@H](C)N(C)C(=O)[C@H](CCCNC(=N)N)NC(=O)[C@H](Cc2ccc(-c3ccccc3)cc2)NC(=O)[C@H](C(C)C)NC(=O)[C@H](Cc2c[nH]c3ccccc23)NC(=O)[C@H](CC(=O)O)NC(=O)[C@H](Cc2ccc(O)cc2)NC(=O)[C@H](Cc2cnc[nH]2)NC(=O)CSC[C@@H](C(=O)N[C@@H](C)C(N)=O)NC(=O)[C@H]([C@@H](C)O)NC(=O)[C@H](C(C)C)NC1=O` [Compound 1051] ({CH2CO}-HYDWV[Bip]R[NMeA][dL][Dab]LVTCA-NH2; thioether N-14): the IC50 stood at 0.15 µM.
With `Cc1cccc(C[C@@H]2NC(=O)[C@H](CC(=O)O)NC(=O)[C@H](Cc3ccc(C(=O)O)cc3)NC(=O)[C@H](Cc3ccncc3)NC(=O)CSC[C@@H](C(=O)N[C@@H](C)C(N)=O)NC(=O)[C@H]([C@@H](C)O)NC(=O)[C@H](C(C)C)NC(=O)[C@H](CC(C)C)NC(=O)[C@H](CCN)NC(=O)[C@@H](CC(C)C)NC(=O)[C@H](C)N(C)C(=O)[C@H](CCCNC(N)=O)NC(=O)[C@H](Cc3ccc(-c4ccccc4)cc3)NC(=O)[C@H](C(C)C)NC2=O)c1` [Compound 1431] ({CH2CO}-[4Pal][Phe(4-COOH)]D[Phe(3-Me)]V[Bip][Cit][NMeA][dL][Dab]LVTCA-NH2; thioether N-14) the figure was 0.01 µM; with `CC(C)C[C@@H]1NC(=O)[C@H](Cc2c[nH]c3ccccc23)NC(=O)[C@H](CC(=O)O)NC(=O)[C@H](Cc2ccc(O)cc2)NC(=O)[C@H](Cc2ccccc2)NC(=O)CSC[C@@H](C(=O)NCC(N)=O)NC(=O)[C@H](CO)NC(=O)[C@H](C(C)C)NC(=O)[C@H](CC(C)C)NC(=O)[C@H](CCN)NC(=O)[C@@H](CC(C)C)NC(=O)[C@H](C)N(C)C(=O)[C@H](C(C)C)NC(=O)[C@H](Cc2ccc(-c3ccccc3)cc2)NC1=O` [Compound 1472] ({CH2CO}-FYDWL[Bip]V[NMeA][dL][Dab]LVSCG-NH2; thioether N-14), 0.01 µM; with `CC(C)C[C@@H]1NC(=O)[C@H](CCCNC(=N)N)NC(=O)[C@@H](CC(C)C)NC(=O)[C@H](C)N(C)C(=O)[C@H](CCC(=O)O)NC(=O)[C@H](Cc2ccc(-c3ccccc3)cc2)NC(=O)[C@H](C(C)C)NC(=O)[C@H](Cc2c[nH]c3ccccc23)NC(=O)[C@H](CC(=O)O)NC(=O)[C@H](Cc2ccc(O)cc2)NC(=O)[C@H](CC(N)=O)NC(=O)CSC[C@@H](C(=O)N[C@@H](C)C(N)=O)NC(=O)[C@H](CCCN)NC(=O)[C@H](C(C)C)NC1=O` [Compound 1250] ({CH2CO}-NYDWV[Bip]E[NMeA][dL]RLV[Orn]CA-NH2; thioether N-14), 0.07 µM.
For `COc1cccc(C[C@@H]2NC(=O)[C@H](CC(=O)O)NC(=O)[C@H](Cc3ccc(O)cc3)NC(=O)[C@H](CC(N)=O)NC(=O)CSC[C@@H](C(=O)N[C@@H](C)C(N)=O)NC(=O)[C@H]([C@@H](C)O)NC(=O)[C@H](C(C)C)NC(=O)[C@H](CC(C)C)NC(=O)[C@H](CCCNC(=N)N)NC(=O)[C@@H](CC(C)C)NC(=O)[C@H](C)N(C)C(=O)[C@H](C(C)C)NC(=O)[C@H](Cc3ccc(-c4ccccc4)cc3)NC(=O)[C@H](C(C)C)NC2=O)c1` [Compound 1292] ({CH2CO}-NYD[Phe(3-OMe)]V[Bip]V[NMeA][dL]RLVTCA-NH2; thioether N-14) the value was 0.03 µM.

The values above are taken from patent US20240409585A1, “MACROCYCLIC IMMUNOMODULATORS” (priority 2021, published 2024).
